Measurements: patent publication US20260206755A1, “COMPOUNDS AND COMPOSITIONS HAVING KNOCK-DOWN OR BLOOD FEED INHIBITION ACTIVITY AGAINST INSECT PESTS” (priority 2017, published 2026)

Each molecule was assayed on Anopheles stephensi (assay: Anopheles stephensi treated well plate contact test: knockdown and mortality). Details: Anopheles stephensi; TFNA-AM 2 ppm alone, after 24 hours; read-out: mortality % 24, TFNA-AM alone.
Assay type: in vivo
How it was run: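 Well surfaces coated with ethanol solution of compound at a defined concentration, alone or with 2 ppm TFNA-AM, then dried. Five non-blood-fed 2–5-day-old adult females per well, fed 10% sucrose; knockdown scored at 1 hour, mortality at 24 and 48 hours, replicate means reported.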
With `NC(=O)c1cnccc1C(F)(F)F` [TFNA-AM, 4-(trifluoromethyl)pyridine-3-carboxamide] the mortality at 2 ppm was 18.3%.

Same assay, conditions: Anopheles stephensi; TFNA-AM 2 ppm alone, after 48 hours; read-out: mortality % 48, TFNA-AM alone
Molecule `NC(=O)c1cnccc1C(F)(F)F` [TFNA-AM, 4-(trifluoromethyl)pyridine-3-carboxamide] has a mortality at 2 ppm of 11.7%.

Same assay, conditions: Anopheles stephensi; test compound 0.2 ppm, without TFNA-AM, after 24 hours; read-out: mortality % 24, without TFNA-AM
In the case of `CC(COc1ccc(Oc2ccccc2)cc1)Oc1ccccn1` (stereo not shown) [Pyriproxyfen], the mortality at 0.2 ppm was 0%. For `CC(c1ccc(C(F)(F)F)nc1)S(C)(=O)=NC#N` (stereo not shown) [Sulfoxaflor], the mortality at 0.2 ppm was 0%. In the case of `CCc1nn(C)c(C(=O)NCc2ccc(C(C)(C)C)cc2)c1Cl` [Tebufenpyrad], the mortality at 0.2 ppm was 0%.

Same assay, conditions: Anopheles stephensi; test compound 0.2 ppm, without TFNA-AM, after 48 hours; read-out: mortality % 48, without TFNA-AM
`CC(COc1ccc(Oc2ccccc2)cc1)Oc1ccccn1` (stereo not shown) [Pyriproxyfen] gave a mortality at 0.2 ppm of 0%. `CC(c1ccc(C(F)(F)F)nc1)S(C)(=O)=NC#N` (stereo not shown) [Sulfoxaflor] showed a mortality at 0.2 ppm of 30%. With `CCc1nn(C)c(C(=O)NCc2ccc(C(C)(C)C)cc2)c1Cl` [Tebufenpyrad] the mortality at 0.2 ppm was 0%.

Same assay, conditions: Anopheles stephensi; test compound 0.2 ppm, without TFNA-AM, knockdown after 1 hour; read-out: Knock Down, without TFNA-AM
For `CC(COc1ccc(Oc2ccccc2)cc1)Oc1ccccn1` (stereo not shown) [Pyriproxyfen], the pest or weed control at 0.2 ppm was 0%. With `CC(c1ccc(C(F)(F)F)nc1)S(C)(=O)=NC#N` (stereo not shown) [Sulfoxaflor] the pest or weed control at 0.2 ppm was 0%. With `CCc1nn(C)c(C(=O)NCc2ccc(C(C)(C)C)cc2)c1Cl` [Tebufenpyrad] the pest or weed control at 0.2 ppm was 0%.

Same assay, conditions: Anopheles stephensi; test compound 2 ppm, without TFNA-AM, after 24 hours; read-out: mortality % 24, without TFNA-AM
Work on `CC(COc1ccc(Oc2ccccc2)cc1)Oc1ccccn1` (stereo not shown) [Pyriproxyfen] yielded a mortality at 2 ppm of 0%. `CC(c1ccc(C(F)(F)F)nc1)S(C)(=O)=NC#N` (stereo not shown) [Sulfoxaflor] showed a mortality at 2 ppm of 0%. Work on `CCc1nn(C)c(C(=O)NCc2ccc(C(C)(C)C)cc2)c1Cl` [Tebufenpyrad] yielded a mortality at 2 ppm of 0%.

Same assay, conditions: Anopheles stephensi; test compound 2 ppm, without TFNA-AM, after 48 hours; read-out: mortality % 48, without TFNA-AM
In the case of `CC(COc1ccc(Oc2ccccc2)cc1)Oc1ccccn1` (stereo not shown) [Pyriproxyfen], the mortality at 2 ppm was 0%. In the case of `CC(c1ccc(C(F)(F)F)nc1)S(C)(=O)=NC#N` (stereo not shown) [Sulfoxaflor], the mortality at 2 ppm was 60%. Work on `CCc1nn(C)c(C(=O)NCc2ccc(C(C)(C)C)cc2)c1Cl` [Tebufenpyrad] yielded a mortality at 2 ppm of 0%.

Same assay, conditions: Anopheles stephensi; test compound 2 ppm, without TFNA-AM, knockdown after 1 hour; read-out: Knock Down, without TFNA-AM
`CC(COc1ccc(Oc2ccccc2)cc1)Oc1ccccn1` (stereo not shown) [Pyriproxyfen] showed a pest or weed control at 2 ppm of 0%. `CC(c1ccc(C(F)(F)F)nc1)S(C)(=O)=NC#N` (stereo not shown) [Sulfoxaflor] was tested, and the pest or weed control at 2 ppm was 0%. `CCc1nn(C)c(C(=O)NCc2ccc(C(C)(C)C)cc2)c1Cl` [Tebufenpyrad] gave a pest or weed control at 2 ppm of 0%.

Same assay, conditions: Anopheles stephensi; test compound 20 ppm, without TFNA-AM, after 24 hours; read-out: mortality % 24, without TFNA-AM
`CC(COc1ccc(Oc2ccccc2)cc1)Oc1ccccn1` (stereo not shown) [Pyriproxyfen] showed a mortality at 20 ppm of 0%. With `CC(c1ccc(C(F)(F)F)nc1)S(C)(=O)=NC#N` (stereo not shown) [Sulfoxaflor] the mortality at 20 ppm was 70%. With `CCc1nn(C)c(C(=O)NCc2ccc(C(C)(C)C)cc2)c1Cl` [Tebufenpyrad] the mortality at 20 ppm was 13%.

Same assay, conditions: Anopheles stephensi; test compound 20 ppm, without TFNA-AM, after 48 hours; read-out: mortality % 48, without TFNA-AM
For `CC(COc1ccc(Oc2ccccc2)cc1)Oc1ccccn1` (stereo not shown) [Pyriproxyfen], the mortality at 20 ppm was 0%. `CC(c1ccc(C(F)(F)F)nc1)S(C)(=O)=NC#N` (stereo not shown) [Sulfoxaflor] was tested, and the mortality at 20 ppm was 80%. `CCc1nn(C)c(C(=O)NCc2ccc(C(C)(C)C)cc2)c1Cl` [Tebufenpyrad] was tested, and the mortality at 20 ppm was 20%.

Same assay, conditions: Anopheles stephensi; test compound 20 ppm, without TFNA-AM, knockdown after 1 hour; read-out: Knock Down, without TFNA-AM
For `CC(COc1ccc(Oc2ccccc2)cc1)Oc1ccccn1` (stereo not shown) [Pyriproxyfen], the pest or weed control at 20 ppm was 0%. Molecule `CC(c1ccc(C(F)(F)F)nc1)S(C)(=O)=NC#N` (stereo not shown) [Sulfoxaflor] has a pest or weed control at 20 ppm of 0%. For `CCc1nn(C)c(C(=O)NCc2ccc(C(C)(C)C)cc2)c1Cl` [Tebufenpyrad], the pest or weed control at 20 ppm was 0%.

Same assay, conditions: Anopheles stephensi; test compound 200 ppm, without TFNA-AM, after 24 hours; read-out: mortality % 24, without TFNA-AM
`CC(COc1ccc(Oc2ccccc2)cc1)Oc1ccccn1` (stereo not shown) [Pyriproxyfen] gave a mortality at 200 ppm of 0%. With `CC(c1ccc(C(F)(F)F)nc1)S(C)(=O)=NC#N` (stereo not shown) [Sulfoxaflor] the mortality at 200 ppm was 80%. `CCc1nn(C)c(C(=O)NCc2ccc(C(C)(C)C)cc2)c1Cl` [Tebufenpyrad] showed a mortality at 200 ppm of 73%.

Same assay, conditions: Anopheles stephensi; test compound 200 ppm, without TFNA-AM, after 48 hours; read-out: mortality % 48, without TFNA-AM
`CC(COc1ccc(Oc2ccccc2)cc1)Oc1ccccn1` (stereo not shown) [Pyriproxyfen] was tested, and the mortality at 200 ppm was 0%. `CC(c1ccc(C(F)(F)F)nc1)S(C)(=O)=NC#N` (stereo not shown) [Sulfoxaflor] was tested, and the mortality at 200 ppm was 100%. `CCc1nn(C)c(C(=O)NCc2ccc(C(C)(C)C)cc2)c1Cl` [Tebufenpyrad] gave a mortality at 200 ppm of 67%.

Same assay, conditions: Anopheles stephensi; test compound 200 ppm, without TFNA-AM, knockdown after 1 hour, adult females; read-out: Knock Down, without TFNA-AM
Molecule `CC(COc1ccc(Oc2ccccc2)cc1)Oc1ccccn1` (stereo not shown) [Pyriproxyfen] has a pest or weed control at 200 ppm of 0%. `CC(c1ccc(C(F)(F)F)nc1)S(C)(=O)=NC#N` (stereo not shown) [Sulfoxaflor] showed a pest or weed control at 200 ppm of 20%. `CCc1nn(C)c(C(=O)NCc2ccc(C(C)(C)C)cc2)c1Cl` [Tebufenpyrad] gave a pest or weed control at 200 ppm of 0%.

Same assay, conditions: TFNA-AM 2 ppm alone, knockdown after 1 hour
With `NC(=O)c1cnccc1C(F)(F)F` [TFNA-AM, 4-(trifluoromethyl)pyridine-3-carboxamide] the “Knock Down, TFNA-AM alone” value was 75.5%.

Same assay, conditions: test compound 0.2 ppm plus 2 ppm TFNA-AM, after 24 hours
`CC(COc1ccc(Oc2ccccc2)cc1)Oc1ccccn1` (stereo not shown) [Pyriproxyfen] was tested, and the “mortality % 24, with TFNA-AM” value was 60%. In the case of `CC(c1ccc(C(F)(F)F)nc1)S(C)(=O)=NC#N` (stereo not shown) [Sulfoxaflor], the “mortality % 24, with TFNA-AM” value was 0%. For `CCc1nn(C)c(C(=O)NCc2ccc(C(C)(C)C)cc2)c1Cl` [Tebufenpyrad], the “mortality % 24, with TFNA-AM” value was 0%.

Same assay, conditions: test compound 0.2 ppm plus 2 ppm TFNA-AM, after 48 hours
With `CC(COc1ccc(Oc2ccccc2)cc1)Oc1ccccn1` (stereo not shown) [Pyriproxyfen] the “mortality % 48, with TFNA-AM” value was 60%. In the case of `CC(c1ccc(C(F)(F)F)nc1)S(C)(=O)=NC#N` (stereo not shown) [Sulfoxaflor], the “mortality % 48, with TFNA-AM” value was 20%. For `CCc1nn(C)c(C(=O)NCc2ccc(C(C)(C)C)cc2)c1Cl` [Tebufenpyrad], the “mortality % 48, with TFNA-AM” value was 0%.

Same assay, conditions: test compound 0.2 ppm plus 2 ppm TFNA-AM, knockdown after 1 hour
In the case of `CC(COc1ccc(Oc2ccccc2)cc1)Oc1ccccn1` (stereo not shown) [Pyriproxyfen], the “Knock Down, with TFNA-AM” value was 100%. For `CC(c1ccc(C(F)(F)F)nc1)S(C)(=O)=NC#N` (stereo not shown) [Sulfoxaflor], the “Knock Down, with TFNA-AM” value was 100%. `CCc1nn(C)c(C(=O)NCc2ccc(C(C)(C)C)cc2)c1Cl` [Tebufenpyrad] was tested, and the “Knock Down, with TFNA-AM” value was 93%.

Same assay, conditions: test compound 2 ppm plus 2 ppm TFNA-AM, after 24 hours
With `CC(COc1ccc(Oc2ccccc2)cc1)Oc1ccccn1` (stereo not shown) [Pyriproxyfen] the “mortality % 24, with TFNA-AM” value was 60%. `CCc1nn(C)c(C(=O)NCc2ccc(C(C)(C)C)cc2)c1Cl` [Tebufenpyrad] was tested, and the “mortality % 24, with TFNA-AM” value was 27%.

Same assay, conditions: test compound 2 ppm plus 2 ppm TFNA-AM, after 48 hours
`CC(COc1ccc(Oc2ccccc2)cc1)Oc1ccccn1` (stereo not shown) [Pyriproxyfen] was tested, and the “mortality % 48, with TFNA-AM” value was 60%.

Same assay, conditions: test compound 2 ppm plus 2 ppm TFNA-AM, knockdown after 1 hour
For `CC(COc1ccc(Oc2ccccc2)cc1)Oc1ccccn1` (stereo not shown) [Pyriproxyfen], the “Knock Down, with TFNA-AM” value was 100%. In the case of `CC(c1ccc(C(F)(F)F)nc1)S(C)(=O)=NC#N` (stereo not shown) [Sulfoxaflor], the “Knock Down, with TFNA-AM” value was 100%. With `CCc1nn(C)c(C(=O)NCc2ccc(C(C)(C)C)cc2)c1Cl` [Tebufenpyrad] the “Knock Down, with TFNA-AM” value was 93%.

Same assay, conditions: test compound 20 ppm plus 2 ppm TFNA-AM, after 24 hours
`CC(COc1ccc(Oc2ccccc2)cc1)Oc1ccccn1` (stereo not shown) [Pyriproxyfen] was tested, and the “mortality % 24, with TFNA-AM” value was 60%. In the case of `CCc1nn(C)c(C(=O)NCc2ccc(C(C)(C)C)cc2)c1Cl` [Tebufenpyrad], the “mortality % 24, with TFNA-AM” value was 80%.

Same assay, conditions: test compound 20 ppm plus 2 ppm TFNA-AM, after 48 hours
With `CC(COc1ccc(Oc2ccccc2)cc1)Oc1ccccn1` (stereo not shown) [Pyriproxyfen] the “mortality % 48, with TFNA-AM” value was 60%. With `CC(c1ccc(C(F)(F)F)nc1)S(C)(=O)=NC#N` (stereo not shown) [Sulfoxaflor] the “mortality % 48, with TFNA-AM” value was 90%.

Same assay, conditions: test compound 20 ppm plus 2 ppm TFNA-AM, knockdown after 1 hour
`CC(COc1ccc(Oc2ccccc2)cc1)Oc1ccccn1` (stereo not shown) [Pyriproxyfen] was tested, and the “Knock Down, with TFNA-AM” value was 100%. In the case of `CC(c1ccc(C(F)(F)F)nc1)S(C)(=O)=NC#N` (stereo not shown) [Sulfoxaflor], the “Knock Down, with TFNA-AM” value was 100%. For `CCc1nn(C)c(C(=O)NCc2ccc(C(C)(C)C)cc2)c1Cl` [Tebufenpyrad], the “Knock Down, with TFNA-AM” value was 93%.

Same assay, conditions: test compound 200 ppm plus 2 ppm TFNA-AM, after 24 hours
`CC(COc1ccc(Oc2ccccc2)cc1)Oc1ccccn1` (stereo not shown) [Pyriproxyfen] was tested, and the “mortality % 24, with TFNA-AM” value was 80%. For `CC(c1ccc(C(F)(F)F)nc1)S(C)(=O)=NC#N` (stereo not shown) [Sulfoxaflor], the “mortality % 24, with TFNA-AM” value was 90%. `CCc1nn(C)c(C(=O)NCc2ccc(C(C)(C)C)cc2)c1Cl` [Tebufenpyrad] was tested, and the “mortality % 24, with TFNA-AM” value was 100%.

Same assay, conditions: test compound 200 ppm plus 2 ppm TFNA-AM, after 48 hours
For `CC(COc1ccc(Oc2ccccc2)cc1)Oc1ccccn1` (stereo not shown) [Pyriproxyfen], the “mortality % 48, with TFNA-AM” value was 80%. With `CC(c1ccc(C(F)(F)F)nc1)S(C)(=O)=NC#N` (stereo not shown) [Sulfoxaflor] the “mortality % 48, with TFNA-AM” value was 100%. With `CCc1nn(C)c(C(=O)NCc2ccc(C(C)(C)C)cc2)c1Cl` [Tebufenpyrad] the “mortality % 48, with TFNA-AM” value was 100%.

Same assay, conditions: test compound 200 ppm plus 2 ppm TFNA-AM, knockdown after 1 hour
In the case of `CC(COc1ccc(Oc2ccccc2)cc1)Oc1ccccn1` (stereo not shown) [Pyriproxyfen], the “Knock Down, with TFNA-AM” value was 100%. For `CC(c1ccc(C(F)(F)F)nc1)S(C)(=O)=NC#N` (stereo not shown) [Sulfoxaflor], the “Knock Down, with TFNA-AM” value was 100%. `CCc1nn(C)c(C(=O)NCc2ccc(C(C)(C)C)cc2)c1Cl` [Tebufenpyrad] was tested, and the “Knock Down, with TFNA-AM” value was 93%.
